# Reference: article PMC3237002, “Molecular Conversion of Muscarinic Acetylcholine Receptor M5 to Muscarinic Toxin 7 (MT7)-Binding Protein” (Toxins, 2011)
# Substitutions are numbered along the chain they refer to.
# Assays:
# [1] = biological target: T1, M5-ELY receptor construct (Homo sapiens, UniProt P08912, K175E/P179L/Q184Y); test: [3H]NMS dissociation rate, M5-ELY; format: binding
# T1 construct: expressed in transfected cells; host or cells: Sf9 cells, recombinant baculovirus
# T1 sequence (P08912 1-532 K175E/P179L/Q184Y): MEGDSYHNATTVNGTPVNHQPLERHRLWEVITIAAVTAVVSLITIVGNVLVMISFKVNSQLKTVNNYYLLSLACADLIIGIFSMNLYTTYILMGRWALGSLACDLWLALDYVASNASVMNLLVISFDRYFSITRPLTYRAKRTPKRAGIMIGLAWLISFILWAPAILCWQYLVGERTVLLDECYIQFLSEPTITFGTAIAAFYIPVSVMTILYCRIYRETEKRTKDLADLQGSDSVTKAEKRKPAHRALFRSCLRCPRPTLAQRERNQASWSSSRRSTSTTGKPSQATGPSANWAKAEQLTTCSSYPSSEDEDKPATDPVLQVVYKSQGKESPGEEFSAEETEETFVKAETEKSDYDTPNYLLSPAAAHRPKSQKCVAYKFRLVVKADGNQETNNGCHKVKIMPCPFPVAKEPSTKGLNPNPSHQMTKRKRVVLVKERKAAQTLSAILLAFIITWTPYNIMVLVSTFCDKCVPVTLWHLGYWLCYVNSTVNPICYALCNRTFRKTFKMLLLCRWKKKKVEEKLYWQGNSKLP
# Experimental: (§1) The Infected cells from monolayer culture were harvested in phosphate-buffered saline solution, centrifuged 700× g and stored as pellets at −70 °C until use. For binding experiments the cells were resuspended in binding buffer (100 mM NaCl, 20 mM HEPES, 10 mM MgCl2, 1 mM EDTA, pH adjusted to 7.4) and homogenized with an Ultra-Turrax homogenizer. […] Atropine (10 μM) was used to determine nonspecific binding. […] Following this, dissociation was started by addition of 10 μM atropine with or without MT7. Aliquots were removed at regular intervals from 0 to 100 min. In testing the reversibility of MT7 binding, cell homogenates were first incubated with toxin in test tubes for 45 min, thereafter centrifuged 12,000 × g for 30 min and then resuspended in fresh buffer. […] All reactions were terminated by rapid filtration through prewashed GF/B filters followed by five washes with cold buffer containing 180 mM NaCl, 25 mM MgCl2, and 20 mM HEPES, pH 7.4, in a microplate harvester. Radioactivity on filters was determined in a TopCount microplate scintillation counter (PerkinElmer, Waltham, MA).
# [2] = biological target: T2, M5-ELYE receptor construct (Homo sapiens, UniProt P08912, K175E/P179L/Q184Y/V474E); test: [3H]NMS dissociation rate, M5-ELYE; format: binding
# T2 construct: expressed in transfected cells; host or cells: Sf9 cells, recombinant baculovirus
# T2 sequence (P08912 1-532 K175E/P179L/Q184Y/V474E): T1 sequence (P08912 1-532 K175E/P179L/Q184Y) with V474E
# Experimental: as §1
structure (smiles),measurement,setting,value
"C[N+]1(C)[C@@H]2CC(OC(=O)[C@H](CO)c3ccccc3)C[C@H]1[C@@H]1O[C@@H]12 (some centres unmarked) [[^3H]NMS, [^3H]-N-methylscopolamine]","[3H]NMS dissociation rate, control",[1],0.113 min⁻¹
same,"[3H]NMS dissociation rate, control",[2],0.147 min⁻¹
